Earlier results, collected in patent publication US20140275170A1, “TASTE MASKING OF ANESTHETICS AND ANALGESICS” (priority 2013, published 2014).

Details: maximum doses of 7 mg/kg (550 mg)

Cc1cccc(C)c1NC(=O)C1CCCCN1C (stereo not shown) [mepivacaine]
Adverse effect at maximum doses: without adverse effect
